From patent US12668584B2, “Heterocyclic compounds as kinase inhibitors for therapeutic uses” (National Health Research Institutes, priority 2019, dated 2026)

Tests used:
[1] = target: platelet-derived growth factor receptor (PDGFR) A (Homo sapiens, UniProt P16234); assay: HotSpot kinase profiling, PDGFR A; type: biochemical; conditions: HotSpot assay, 10 μM ATP; IC50 of kinase divided by that of CSF1R
Experimental: (§1) A study was conducted to determine kinase selectivity of compounds 27 and 67. More specifically, each compound was tested for inhibitory activity of CSF1R kinase, as compared to that of seven other kinases, i.e., Aurora A, Aurora B, tyrosine-protein kinase Kit (c-Kit), fms-like tyrosine kinase 3 (FLT3), platelet-derived growth factor receptor (PDGFR) A, PDGFR B, and discoidin domain receptor tyrosine kinase 1 (DDR1).
(§2) In vitro profiling of the kinase panel was performed at Reaction Biology Corporation (www.reactionbiology.com, Malvern, PA) using the “HotSpot” assay platform. Briefly, specific kinase/substrate pairs along with required cofactors were prepared in a reaction buffer containing 20 mM Hepes pH 7.5, 10 mM MgCl2, 1 mM EGTA, 0.02% Brij35, 0.02 mg/ml BSA, 0.1 mM NA3VO4, 2 mM DTT, and 1% DMSO. Compound 27 or 67 was added. 20 minutes later, a mixture of ATP (Sigma, St. Louis MO) and ^33P ATP (Perkin Elmer, Waltham MA) was added to the resulting reaction solution to give a final concentration of 10 μM. The reaction was carried out at room temperature for 120 min., followed by spotting the reaction solution onto P81 ion exchange filter paper (Whatman Inc., Piscataway, NJ). Unbound phosphate was removed by extensive washing filters in 0.75% phosphoric acid. […] Selectivity, expressed as an IC50 ratio, was determined by dividing the IC50 value of a kinase, e.g., Aurora A, by that of CSF1R.

[2] = target: discoidin domain receptor tyrosine kinase 1 (DDR1) (Homo sapiens, UniProt Q08345); assay: HotSpot kinase profiling, DDR1; type: biochemical; conditions: HotSpot assay, 10 μM ATP; IC50 of kinase divided by that of CSF1R
Chain of discoidin domain receptor tyrosine kinase 1 (DDR1) (Q08345 19-913): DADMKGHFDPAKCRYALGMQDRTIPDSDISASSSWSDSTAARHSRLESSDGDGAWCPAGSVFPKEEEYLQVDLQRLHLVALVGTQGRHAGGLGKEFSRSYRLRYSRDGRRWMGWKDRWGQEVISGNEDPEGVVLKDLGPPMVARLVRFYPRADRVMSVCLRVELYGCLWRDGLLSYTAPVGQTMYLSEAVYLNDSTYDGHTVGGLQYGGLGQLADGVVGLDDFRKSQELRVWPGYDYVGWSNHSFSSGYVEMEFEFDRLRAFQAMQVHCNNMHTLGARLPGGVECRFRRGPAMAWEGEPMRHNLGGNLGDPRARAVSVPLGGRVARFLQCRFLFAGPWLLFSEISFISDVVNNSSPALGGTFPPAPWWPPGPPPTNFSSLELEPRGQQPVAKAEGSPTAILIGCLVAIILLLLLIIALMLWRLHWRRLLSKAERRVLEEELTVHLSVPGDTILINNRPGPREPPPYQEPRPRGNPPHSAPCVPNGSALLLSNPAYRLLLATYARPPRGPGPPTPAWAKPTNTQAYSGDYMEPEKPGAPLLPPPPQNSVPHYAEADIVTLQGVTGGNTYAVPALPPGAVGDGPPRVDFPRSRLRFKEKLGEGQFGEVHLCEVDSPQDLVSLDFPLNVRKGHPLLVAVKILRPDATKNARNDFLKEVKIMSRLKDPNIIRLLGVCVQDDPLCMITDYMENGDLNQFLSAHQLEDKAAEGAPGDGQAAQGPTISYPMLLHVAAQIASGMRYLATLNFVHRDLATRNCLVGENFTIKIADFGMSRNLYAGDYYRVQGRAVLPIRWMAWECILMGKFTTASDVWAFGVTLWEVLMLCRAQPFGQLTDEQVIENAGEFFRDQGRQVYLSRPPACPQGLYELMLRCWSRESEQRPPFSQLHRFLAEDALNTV
Experimental: as §1, §2

[3] = target: tyrosine-protein kinase Kit (c-Kit) (Homo sapiens, UniProt P10721); assay: HotSpot kinase profiling, c-Kit; type: biochemical; conditions: HotSpot assay, 10 μM ATP; IC50 of kinase divided by that of CSF1R
Chain of tyrosine-protein kinase Kit (c-Kit) (P10721 26-976): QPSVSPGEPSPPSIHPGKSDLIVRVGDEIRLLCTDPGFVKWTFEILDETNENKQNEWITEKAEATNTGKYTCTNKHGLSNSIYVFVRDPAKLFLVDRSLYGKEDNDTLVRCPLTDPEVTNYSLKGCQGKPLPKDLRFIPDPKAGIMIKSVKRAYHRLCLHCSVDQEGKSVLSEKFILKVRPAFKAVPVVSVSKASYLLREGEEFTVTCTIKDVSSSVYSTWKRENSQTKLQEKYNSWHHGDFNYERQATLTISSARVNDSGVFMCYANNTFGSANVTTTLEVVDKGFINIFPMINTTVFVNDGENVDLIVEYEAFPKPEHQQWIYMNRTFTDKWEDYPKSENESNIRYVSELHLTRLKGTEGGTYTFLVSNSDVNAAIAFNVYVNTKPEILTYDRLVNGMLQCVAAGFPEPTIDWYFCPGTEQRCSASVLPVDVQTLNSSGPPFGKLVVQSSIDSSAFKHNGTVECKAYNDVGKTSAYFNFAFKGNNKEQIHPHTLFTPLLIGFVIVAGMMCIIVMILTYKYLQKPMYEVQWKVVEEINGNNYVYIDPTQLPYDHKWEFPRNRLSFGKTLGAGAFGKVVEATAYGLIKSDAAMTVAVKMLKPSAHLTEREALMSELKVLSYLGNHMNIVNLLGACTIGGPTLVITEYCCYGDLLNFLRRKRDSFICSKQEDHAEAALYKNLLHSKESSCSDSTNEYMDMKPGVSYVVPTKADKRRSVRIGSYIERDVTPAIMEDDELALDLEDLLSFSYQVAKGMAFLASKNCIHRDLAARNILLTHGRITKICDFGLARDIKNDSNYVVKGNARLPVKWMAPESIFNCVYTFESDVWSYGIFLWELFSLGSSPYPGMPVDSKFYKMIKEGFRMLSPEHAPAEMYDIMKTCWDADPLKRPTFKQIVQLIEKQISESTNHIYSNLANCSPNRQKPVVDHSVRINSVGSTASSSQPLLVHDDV
Experimental: as §1, §2

M-NFS-60 cells = assay: MTS cell viability assay, M-NFS-60; type: cell-based; conditions: 72 h, read-out: Cellular Proliferation Assay M-NFS-60 (nM) GI50
How it was run: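 Cells seeded 16 h beforehand (10000 M-NFS-60 or 8000 BaF3-CSF1R-1600 per well), then exposed 72 h to test compounds in RPMI1640 with 10% FBS at 37 °C. Viability read by MTS absorbance at 490 nm; GI50 is the concentration giving 50% viability reduction versus DMSO vehicle.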

PDGFR B = PDGFR B (Homo sapiens, UniProt P09619); assay: HotSpot kinase profiling, PDGFR B; type: biochemical; conditions: HotSpot assay, 10 μM ATP; IC50 of kinase divided by that of CSF1R
Chain of PDGFR B (P09619 33-1106): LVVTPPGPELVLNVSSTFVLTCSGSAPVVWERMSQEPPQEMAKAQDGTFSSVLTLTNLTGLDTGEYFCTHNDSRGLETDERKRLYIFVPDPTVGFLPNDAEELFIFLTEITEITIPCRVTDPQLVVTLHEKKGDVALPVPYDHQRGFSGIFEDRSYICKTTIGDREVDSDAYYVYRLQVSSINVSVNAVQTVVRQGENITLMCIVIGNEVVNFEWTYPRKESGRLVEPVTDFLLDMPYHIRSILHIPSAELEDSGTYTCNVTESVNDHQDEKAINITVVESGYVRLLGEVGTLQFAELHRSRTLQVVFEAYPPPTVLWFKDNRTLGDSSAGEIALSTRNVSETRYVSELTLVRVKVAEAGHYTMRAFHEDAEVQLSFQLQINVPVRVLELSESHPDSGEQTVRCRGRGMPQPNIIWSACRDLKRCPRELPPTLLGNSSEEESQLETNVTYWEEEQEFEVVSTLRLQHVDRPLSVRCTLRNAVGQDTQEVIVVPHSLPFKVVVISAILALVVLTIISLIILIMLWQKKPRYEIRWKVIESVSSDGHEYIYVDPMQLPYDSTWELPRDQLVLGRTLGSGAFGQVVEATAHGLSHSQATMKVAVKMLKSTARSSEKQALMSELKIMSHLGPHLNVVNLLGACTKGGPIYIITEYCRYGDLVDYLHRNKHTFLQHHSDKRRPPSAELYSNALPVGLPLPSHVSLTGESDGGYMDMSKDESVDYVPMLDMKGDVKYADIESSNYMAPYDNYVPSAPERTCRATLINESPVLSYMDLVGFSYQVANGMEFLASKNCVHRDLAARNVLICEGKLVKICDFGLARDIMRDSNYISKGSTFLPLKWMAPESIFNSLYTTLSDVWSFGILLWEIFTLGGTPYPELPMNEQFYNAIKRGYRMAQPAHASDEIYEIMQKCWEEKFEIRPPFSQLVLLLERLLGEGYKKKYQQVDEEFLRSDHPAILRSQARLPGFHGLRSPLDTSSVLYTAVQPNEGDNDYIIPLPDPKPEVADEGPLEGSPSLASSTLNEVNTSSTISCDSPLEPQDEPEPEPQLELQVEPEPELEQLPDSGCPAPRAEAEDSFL
Experimental: as §1, §2

[4] = target: T1, fms-like tyrosine kinase 3 (FLT3) (Homo sapiens, UniProt P36888); assay: HotSpot kinase profiling, FLT3; type: biochemical; conditions: HotSpot assay, 10 μM ATP; IC50 of kinase divided by that of CSF1R
T1 sequence (P36888 27-993): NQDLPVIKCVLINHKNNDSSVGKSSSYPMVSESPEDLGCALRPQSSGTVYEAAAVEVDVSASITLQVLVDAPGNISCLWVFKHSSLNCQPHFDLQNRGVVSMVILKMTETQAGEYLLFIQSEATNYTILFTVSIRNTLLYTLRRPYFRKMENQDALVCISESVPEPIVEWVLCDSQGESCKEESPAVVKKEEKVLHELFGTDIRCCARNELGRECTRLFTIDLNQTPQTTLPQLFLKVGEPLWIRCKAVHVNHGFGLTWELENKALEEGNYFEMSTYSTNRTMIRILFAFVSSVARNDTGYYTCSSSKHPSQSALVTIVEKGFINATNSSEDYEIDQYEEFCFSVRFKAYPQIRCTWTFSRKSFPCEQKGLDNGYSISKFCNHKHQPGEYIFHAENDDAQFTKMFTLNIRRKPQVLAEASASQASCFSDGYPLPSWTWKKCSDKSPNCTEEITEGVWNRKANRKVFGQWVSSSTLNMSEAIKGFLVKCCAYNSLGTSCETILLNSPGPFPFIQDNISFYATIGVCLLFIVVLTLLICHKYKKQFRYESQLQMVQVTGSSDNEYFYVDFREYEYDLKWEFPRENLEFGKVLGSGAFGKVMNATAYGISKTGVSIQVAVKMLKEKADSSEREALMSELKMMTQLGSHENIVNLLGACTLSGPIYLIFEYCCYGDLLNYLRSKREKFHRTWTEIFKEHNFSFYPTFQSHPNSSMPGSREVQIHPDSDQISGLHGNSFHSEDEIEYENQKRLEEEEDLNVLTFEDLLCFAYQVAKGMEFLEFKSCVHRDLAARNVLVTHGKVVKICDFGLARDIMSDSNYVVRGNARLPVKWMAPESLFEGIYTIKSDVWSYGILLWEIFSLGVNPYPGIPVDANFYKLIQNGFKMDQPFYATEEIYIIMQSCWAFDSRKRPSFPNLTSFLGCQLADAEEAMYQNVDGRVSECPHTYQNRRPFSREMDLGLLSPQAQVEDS
Experimental: as §1, §2

CSF1R = CSF1R (Homo sapiens, UniProt P07333); assay: HotSpot kinase profiling, CSF1R; type: biochemical; conditions: HotSpot assay, 10 μM ATP
Chain of CSF1R (P07333 20-972): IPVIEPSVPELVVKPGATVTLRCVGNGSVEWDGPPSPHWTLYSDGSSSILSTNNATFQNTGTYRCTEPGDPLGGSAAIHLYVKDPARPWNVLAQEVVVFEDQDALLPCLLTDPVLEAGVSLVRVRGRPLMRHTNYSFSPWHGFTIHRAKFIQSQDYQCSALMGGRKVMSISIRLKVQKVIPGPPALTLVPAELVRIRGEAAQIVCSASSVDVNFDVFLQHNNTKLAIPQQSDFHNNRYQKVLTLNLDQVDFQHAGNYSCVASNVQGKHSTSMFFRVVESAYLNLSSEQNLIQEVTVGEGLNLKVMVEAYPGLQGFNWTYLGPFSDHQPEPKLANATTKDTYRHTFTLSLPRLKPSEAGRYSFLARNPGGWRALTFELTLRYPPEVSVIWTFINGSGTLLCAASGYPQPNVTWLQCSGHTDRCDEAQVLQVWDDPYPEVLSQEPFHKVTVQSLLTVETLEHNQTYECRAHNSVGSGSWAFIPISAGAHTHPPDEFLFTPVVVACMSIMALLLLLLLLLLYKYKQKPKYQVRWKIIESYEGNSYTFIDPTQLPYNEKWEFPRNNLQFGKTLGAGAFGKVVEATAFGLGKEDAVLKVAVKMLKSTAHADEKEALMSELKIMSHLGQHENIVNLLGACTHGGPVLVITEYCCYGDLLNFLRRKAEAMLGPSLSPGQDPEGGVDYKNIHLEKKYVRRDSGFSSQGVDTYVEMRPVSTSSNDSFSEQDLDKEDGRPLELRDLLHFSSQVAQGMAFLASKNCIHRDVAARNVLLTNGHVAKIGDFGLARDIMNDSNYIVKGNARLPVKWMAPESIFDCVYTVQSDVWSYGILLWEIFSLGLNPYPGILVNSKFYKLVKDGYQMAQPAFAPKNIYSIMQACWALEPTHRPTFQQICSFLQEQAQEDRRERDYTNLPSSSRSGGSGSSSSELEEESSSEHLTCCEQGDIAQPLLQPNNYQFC
Experimental: as §1, §2

Chain of platelet-derived growth factor receptor (PDGFR) A (P16234 24-1089): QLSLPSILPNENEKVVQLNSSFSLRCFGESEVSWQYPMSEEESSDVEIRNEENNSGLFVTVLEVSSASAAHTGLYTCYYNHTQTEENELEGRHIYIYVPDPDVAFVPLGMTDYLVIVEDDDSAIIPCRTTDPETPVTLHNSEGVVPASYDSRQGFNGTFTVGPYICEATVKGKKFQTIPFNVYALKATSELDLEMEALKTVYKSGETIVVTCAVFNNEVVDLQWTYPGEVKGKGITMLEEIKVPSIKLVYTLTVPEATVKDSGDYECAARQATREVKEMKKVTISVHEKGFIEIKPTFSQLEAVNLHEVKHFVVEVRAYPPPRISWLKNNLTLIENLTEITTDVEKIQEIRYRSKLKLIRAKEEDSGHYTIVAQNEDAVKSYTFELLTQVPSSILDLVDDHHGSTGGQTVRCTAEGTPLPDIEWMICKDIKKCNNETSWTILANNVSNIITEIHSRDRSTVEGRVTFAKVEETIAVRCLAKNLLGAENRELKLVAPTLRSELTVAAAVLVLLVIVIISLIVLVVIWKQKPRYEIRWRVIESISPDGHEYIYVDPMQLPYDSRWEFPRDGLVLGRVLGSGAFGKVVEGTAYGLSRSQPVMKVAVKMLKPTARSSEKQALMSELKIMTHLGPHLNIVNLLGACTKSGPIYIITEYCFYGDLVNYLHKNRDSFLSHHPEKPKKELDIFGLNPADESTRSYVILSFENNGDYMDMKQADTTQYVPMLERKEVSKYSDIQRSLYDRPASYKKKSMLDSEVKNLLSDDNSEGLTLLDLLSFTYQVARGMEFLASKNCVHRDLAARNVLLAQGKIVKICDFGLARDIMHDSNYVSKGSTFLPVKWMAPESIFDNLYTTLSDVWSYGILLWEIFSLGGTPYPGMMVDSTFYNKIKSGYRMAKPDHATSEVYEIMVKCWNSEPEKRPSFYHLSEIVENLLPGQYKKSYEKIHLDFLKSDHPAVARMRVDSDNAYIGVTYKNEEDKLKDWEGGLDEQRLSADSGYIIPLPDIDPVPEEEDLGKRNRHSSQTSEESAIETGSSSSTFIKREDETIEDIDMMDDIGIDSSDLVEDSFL

Row | SMILES | IC50 ratio PDGFR A / CSF1R [1] | IC50 ratio DDR1 / CSF1R [2] | IC50 ratio c-Kit / CSF1R [3] | GI50 (M-NFS-60 cells) [nM] | IC50 ratio PDGFR B / CSF1R (PDGFR B) | IC50 ratio FLT3 / CSF1R [4] | IC50 (CSF1R) [nM]
1 | CN(C)c1ccc2c(Oc3ccc(NC(=O)NCc4ccc(C(F)(F)F)nc4)cc3)ncnc2c1 [Compound 27, 1-(4-((7-(dimethylamino)quinazolin-4-yl)oxy)phenyl)-3-((6-(trifluoromethyl)pyridin-3-yl)methyl)urea] | ++ (++: 100 > IC50 ratio > 10) | +++ (+++: 1000 > IC50 ratio > 100) | ++ (++: 100 > IC50 ratio > 10) | 20 to 100 | ++ (++: 100 > IC50 ratio > 10) | +++ (+++: 1000 > IC50 ratio > 100) | 0.534
2 | CN(C)c1ccc2c(Oc3ccc4c(ccn4C(=O)NCc4ccc(C(F)(F)F)nc4)c3)ncnc2c1 [Compound 67, 5-((7-(dimethylamino)quinazolin-4-yl)oxy)-N-((6-(trifluoromethyl)pyridin-3-yl)methyl)-1H-indole-1-carboxamide] | ++ (++: 100 > IC50 ratio > 10) | + (+: 10 > IC50 ratio > 1) | +++ (+++: 1000 > IC50 ratio > 100) | 100 to 1000 | +++ (+++: 1000 > IC50 ratio > 100) | +++ (+++: 1000 > IC50 ratio > 100) | 5.69
